Patent publication US20220354957A1, “PEPTIDES TARGETING MACROPHAGES, AND CONJUGATES, COMPOSITIONS, AND USES THEREOF” (Twinpig Biolab, Inc., priority 2021, published 2022)
pIC50: −log10 of the molar value.

Assays:
M2-like TAMs = experiment: FACS of tumor macrophages and CD8+ T cells in mouse model of melanoma; type: in vivo; conditions: vs PBS group
Text: (§1) BALB/c and C57BL/6 (B6) wild-type mice were purchased from DBL. For the subcutaneous tumor model of melanoma and prostate cancer, CT26 (3×10^5 cells/mouse), B16F10 (1×10^6 cells/mouse) and TRAMP-C2 cells (1×10^6 cells/mouse) were mixed with Matrigel matrix (Corning) and inoculated subcutaneously into the right flank of the mice, and 4T1 (1×10^5 cells/mouse) cells mixed with Matrigel matrix and inoculated into a 4th mammary fat pad of the mice. TAMpepK, and MpepK peptides (200 nmol/kg) were injected intraperitoneally every 3 days, beginning at day 7 after tumor inoculation, and tumor volume was measured by electronic caliper. All tumor tissues were harvested after the end of the study and tumor weight was measured by an electronic balance.
THP-1 cells were differentiated into macrophages by a 24 h incubation with 100 nM PMA and polarized in M2 macrophages by incubation with 20 ng/ml of IL-4 and 20 ng/ml of IL-13 for 72 h. Polarized cells were treated with 50 nM TAMpep and fragments of TAMpep or Mpep and alanine library of Mpep conjugated with FITC for 1 h. To test change of macrophage population in melanoma tissue, the single cells were isolated from tumor tissue through a 40 μm nylon mesh strainer after dissociation by DNase I (1 U/mL) and collagenase D (1 mg/ml). Cells were detected on BD FACSCalibur and BD FACSCantoII instruments and analyzed by FlowJo software.

4T1 = experiment: 4th mammary orthotopic mouse model of breast cancer (4T1); type: in vivo
Text: as §1
Total RNA was extracted using Easy-Blue reagent. Concentrations of RNA were determined and quantified by measuring absorbance at 260 and 280 nm with a spectrophotometer. Complementary DNA (cDNA) was synthesized from total RNA using a Maxime RT PreMix kit (iNtRON). Real-time PCR analysis was performed with SYBR Green Master Mix. PCR conditions were forty-five cycles at 95° C. for 5 min, followed by 95° C. for 10 sec, 60° C. for 10 sec and 72° C. for 10 sec. mRNA expression were quantified in triplicate. Data were measured with CFX Software (Bio-Rad). GAPDH and β-actin were used as internal controls.

PC3 cells [1] = experiment: Invasion assay of prostate cancer cells with conditioned medium of macrophages; type: cell-based, human; conditions: conditioned medium of M2 macrophages and M2-like TAMs pretreated with peptide
Protocol: To obtain conditioned media of tumor (TCM), PC3 cells were seeded at 2×10^5 cells/well in culture medium in 24-well plates (Corning Inc). After 24 hours, the medium was changed to serum-free RPMI1640 medium and the cells were incubated for 24 hours. For conditioned media of macrophages, THP-1 cells were seeded at 2×10^5 cells/well in culture medium in 24-well plates (Corning Inc) and incubated with 100 nM PMA for 24 h. Cells were polarized into M0, M1, and M2 macrophages or TAM macrophages by TCM and changed to serum-free RPMI1640 medium. After 24 hours, the medium was changed to serum-free RPMI1640 medium and the cells were incubated for 24 hours. Supernatants were harvested and clarified with syringe filters (0.2 μm, Milipore). […]
The invasiveness of prostate cancer cells treated with conditioned media of macrophages was tested according to the manufacturer's instructions for the invasion assay (Corning Inc.) with slight modifications. Briefly, invasiveness was assessed using 24-well plates fitted with polycarbonate 8-μm pore membrane inserts (Corning Inc.) pre-coated with Matrigel (200-300 μg/mL) for 2 hours at 37° C. […] Five randomly selected fields per membrane were counted under a light microscope (Olympus). The invasion index was calculated from the number of cells that migrated in response to conditioned medium compared with the control without conditioned medium.

PC3 cells [2] = experiment: Proliferation and migration of prostate cancer cells by conditioned medium of macrophages; type: cell-based, human; conditions: conditioned media of M2 macrophages and M2-like TAMs pretreated with peptide
Protocol: To obtain conditioned media of tumor (TCM), PC3 cells were seeded at 2×10^5 cells/well in culture medium in 24-well plates (Corning Inc). After 24 hours, the medium was changed to serum-free RPMI1640 medium and the cells were incubated for 24 hours. For conditioned media of macrophages, THP-1 cells were seeded at 2×10^5 cells/well in culture medium in 24-well plates (Corning Inc) and incubated with 100 nM PMA for 24 h. Cells were polarized into M0, M1, and M2 macrophages or TAM macrophages by TCM and changed to serum-free RPMI1640 medium. After 24 hours, the medium was changed to serum-free RPMI1640 medium and the cells were incubated for 24 hours. Supernatants were harvested and clarified with syringe filters (0.2 μm, Milipore). Supernatants of PC3 cells were named tumor-conditioned medium (TCM).
Migration of prostate cancer and melanoma cells was assessed with wound healing assays. PC3 and Sk-Mel-28 cells were seeded at 2×10^5 cells/well in 24-well plates and cultured in RPMI1640 with 10% FBS. When the cells reached confluence, they were wounded by scraping across the surface of the well with a sterile micropipette tip. […] Wound areas were measured with ImageJ software (NCI, Bethesda, Md., USA). The percent of each wounded area filled by cell migration was calculated as: (mean wounded breadth—mean remaining breadth)/mean wounded breadth×100.

[3] = Cell viability test (CCK-8) of dKLA-conjugated alanine-substituted peptides; type: cell-based, human; conditions: FIG. 25; read-out: cytotoxicity IC50 in M2 macrophages
Protocol: (§2) THP-1 monocytes were differentiated into macrophages (M0) by 24 h incubation with 100 nM phorbol 12-myristate 13-acetate (PMA, Sigma) followed by 24 h incubation in RPMI medium (Invitrogen). Macrophages were polarized in M1 macrophages (M1) by incubation with 20 ng/ml of IFN-γ (Prospec) and 100ng/m1 of LPS (Sigma). Macrophage M2 polarization(M2) was obtained by incubation with 20 ng/ml of interleukin (IL) 4 (Prospec) and 20 ng/ml of interleukin 13 (Pro spec).
(§3) […] Cell viability was analyzed using the CCK-8 assay: CCK-8 reagent (Enzo Life Sciences) was added to each well; incubation was continued for 2 hours, and absorbance was measured at 450 nm with a microplate reader (Molecular Devices).

M2 macrophages = experiment: as above; type: cell-based, human; conditions: 1.5 μM, 1 hour then 24 hours, CCK-8, compared to control M2 macrophage
Protocol: as §2, §3

With `CC[C@H](C)[C@H](NC(=O)[C@H](CC(C)C)NC(=O)[C@H](C)NC(=O)[C@@H]1CCCN1C(=O)[C@H](CC(C)C)NC(=O)CNC(=O)[C@@H](NC(=O)[C@@H](NC(=O)[C@H](CC(C)C)NC(=O)[C@@H](NC(C)=O)C(C)C)[C@@H](C)O)[C@@H](C)O)C(=O)N[C@@H](CO)C(=O)N[C@@H](Cc1c[nH]c2ccccc12)C(=O)N[C@H](C(=O)N[C@@H](CCCCN)C(=O)N[C@@H](CCCNC(=N)N)C(=O)N[C@@H](CCCCN)C(=O)N[C@@H](CCCNC(=N)N)C(=O)N[C@@H](CCC(N)=O)C(=O)N[C@@H](CCC(N)=O)C(=O)NCC(=O)NCC(=O)NCC(=O)NCC(=O)N[C@@H](CO)C(=O)N[C@H](CCCCN)C(=O)N[C@H](CC(C)C)C(=O)N[C@H](C)C(=O)N[C@H](CCCCN)C(=O)N[C@H](CC(C)C)C(=O)N[C@H](C)C(=O)N[C@H](CCCCN)C(=O)N[C@H](CCCCN)C(=O)N[C@H](CC(C)C)C(=O)N[C@H](C)C(=O)N[C@H](CCCCN)C(=O)N[C@H](CC(C)C)C(=O)N[C@H](C)C(=O)N[C@H](CCCCN)C(=O)O)[C@@H](C)CC` [MpepK] the “exhaustion markers, such as PD-1 and LAGS, in CD8+ T cells” value (M2-like TAMs; melanoma model) was “significantly reduced”, the “M1-like TAMs (F4/80+ and CD86+ cells)” value (M2-like TAMs; melanoma tumor tissue) was “no change” and the M1/M2 ratio (M2-like TAMs; melanoma tumor tissue) was “significantly increased”. The “M2-like TAMs (F4.80+ and CD206+ cells)” value (M2-like TAMs; melanoma tumor tissue) was “reduced”, the “gene expression of arginase 1 (M2 macrophage marker)” value (4T1; compared to PBS) was “significantly reduced” and the lung metastasis (4T1; vs PBS group) was “decreased”. For the same compound, the tumor volume (4T1; vs PBS group) was “decreased”, the tumor weight (4T1; vs PBS group) was “decreased” and the “invasion of PC3 cells” value (PC3 cells [1]) was “significantly reduced”. For the same compound, the “proliferation of PC3 cells” value (PC3 cells [2]) was “significantly reduced”, the “migration of PC3 cells” value (PC3 cells [2]; wound healing) was “significantly reduced” and the pIC50 [3] was 5.95. For the same compound, the “cytotoxic effect in M2 macrophages” value (M2 macrophages) was “significant cytotoxic effects”.
